Among the data in PubChem BioAssay AID194 (DTP/NCI, 2004) are T/C values, retold here.

In this assay the test system is BDF1 mice, B16 melanoma s.c., survival/tumor T/C. Nature of the assay: NCI In Vivo Anticancer Drug Screen. Data for tumor model B16 Melanoma (subcutaneous) in B6D2F1 (BDF1) mice. Here is the method: The antitumor activity of compounds was measured in mice bearing transplantable tumors. Survival or tumor size were measured and the results are expressed as the measurement made in the treated group (T) divided by the measurement made in the vehicle treated control group (C). The tumor model used in this assay is B16 Melanoma (subcutaneous) in B6D2F1 (BDF1) mice

[1] abbreviates: endpoint: median survival time, dose: 0.5 mg/kg/injection, schedule: Q01DX009 (ip), vehicle: saline with Tween-80, higher = longer survival.
Where [2] appears, read: endpoint: median survival time, dose: 1.0 mg/kg/injection, schedule: Q01DX009 (ip), vehicle: saline with Tween-80, higher = longer survival.

Each structure is given as a SMILES string. Inconclusive results are not listed.

For the compound `COc1cccc2c1C(=O)c1c(O)c3c(c(O)c1C2=O)C[C@@](O)(C(=O)COC(=O)Cc1ccccc1)C[C@@H]3OC1CC(N)C(O)C(C)O1` (stereo not given in full), the T/C runs as follows: under setting [1], 86 % of control; under setting [2], 88 % of control; (endpoint: median survival time, dose: 2.0 mg/kg/injection, schedule: Q01DX009 (ip), vehicle: saline with Tween-80, higher = longer survival) 94 % of control.
For the compound `C1CN1c1nc(N2CC2)nc(N2CC2)n1`, the T/C by setting is: (endpoint: median survival time, dose: 0.12 mg/kg/injection, schedule: Q01DX009 (ip), vehicle: saline, higher = longer survival) 106 % of control; under setting [1], 110 % of control; (endpoint: median survival time, dose: 0.5 mg/kg/injection, schedule: Q08DX002 (ip), vehicle: saline with Tween-80, higher = longer survival) 104 % of control; under setting [2], 93 % of control; (endpoint: median survival time, dose: 2.0 mg/kg/injection, schedule: Q08DX002 (ip), vehicle: saline with Tween-80, higher = longer survival) 179 % of control; (endpoint: median survival time, dose: 4.0 mg/kg/injection, schedule: Q08DX002 (ip), vehicle: saline with Tween-80, higher = longer survival) 87 % of control. Besides, the T/C reads like this: (endpoint: median tumor weight (est.), dose: 0.12 mg/kg/injection, schedule: Q01DX009 (ip), vehicle: saline with Tween-80, higher = larger tumour) 154 % of control; (endpoint: median tumor weight (est.), dose: 0.25 mg/kg/injection, schedule: Q01DX009 (ip), vehicle: saline with Tween-80, higher = larger tumour) 95 % of control; (endpoint: median tumor weight (est.), dose: 0.5 mg/kg/injection, schedule: Q01DX009 (ip), vehicle: saline with Tween-80, higher = larger tumour) 83 % of control; (endpoint: median tumor weight (est.), dose: 0.5 mg/kg/injection, schedule: Q08DX002 (ip), vehicle: saline with Tween-80, higher = larger tumour) 268 % of control; (endpoint: median tumor weight (est.), dose: 1.0 mg/kg/injection, schedule: Q01DX009 (ip), vehicle: saline, higher = larger tumour) 34 % of control; (endpoint: median tumor weight (est.), dose: 1.0 mg/kg/injection, schedule: Q08DX002 (ip), vehicle: saline with Tween-80, higher = larger tumour) 104 % of control. In addition, the T/C was 81 % of control (endpoint: median tumor weight (est.), dose: 2.0 mg/kg/injection, schedule: Q08DX002 (ip), vehicle: saline with Tween-80, higher = larger tumour); 19 % of control (endpoint: median tumor weight (est.), dose: 4.0 mg/kg/injection, schedule: Q08DX002 (ip), vehicle: saline with Tween-80, higher = larger tumour); 86 % of control (endpoint: median tumor weight (est.), dose: 4.0 mg/kg/injection, schedule: Q08DX002 (ip), vehicle: saline, higher = larger tumour).
As to `COC(=O)C(N)CCCCNc1ccc2c(cc1=O)C(NC(C)=O)CCc1cc(OC)c(OC)c(OC)c1-2` (stereo not given), the T/C is, setting by setting: (endpoint: median survival time, dose: 53.0 mg/kg/injection, schedule: Q01DX009 (ip), vehicle: saline, higher = longer survival) 118 % of control; (endpoint: median survival time, dose: 80.0 mg/kg/injection, schedule: Q01DX009 (ip), vehicle: saline, higher = longer survival) 90 % of control; (endpoint: median survival time, dose: 120.0 mg/kg/injection, schedule: Q01DX009 (ip), vehicle: saline, higher = longer survival) 106 % of control; (endpoint: median survival time, dose: 180.0 mg/kg/injection, schedule: Q01DX009 (ip), vehicle: saline, higher = longer survival) 90 % of control.
With `O=P(OCC(Br)CBr)(OCC(Br)CBr)OCC(Br)CBr` (stereo not given), the T/C (endpoint: median survival time, dose: 50.0 mg/kg/injection, schedule: Q01DX009 (ip), vehicle: saline with Tween-80, higher = longer survival) was 110 % of control; the T/C (endpoint: median survival time, dose: 100.0 mg/kg/injection, schedule: Q01DX009 (ip), vehicle: saline with Tween-80, higher = longer survival) is 114 % of control; the T/C (endpoint: median survival time, dose: 200.0 mg/kg/injection, schedule: Q01DX009 (ip), vehicle: saline with Tween-80, higher = longer survival) is 98 % of control; the T/C (endpoint: median survival time, dose: 400.0 mg/kg/injection, schedule: Q01DX009 (ip), vehicle: saline with Tween-80, higher = longer survival) is 105 % of control.
`O`: the T/C is, setting by setting: (endpoint: median survival time, dose: 50.0 mg/kg/injection, schedule: Q02DX009 (ip), vehicle: saline, higher = longer survival) 94 % of control; (endpoint: median survival time, dose: 100.0 mg/kg/injection, schedule: Q02DX009 (ip), vehicle: saline, higher = longer survival) 101 % of control; (endpoint: median survival time, dose: 200.0 mg/kg/injection, schedule: Q02DX009 (ip), vehicle: saline, higher = longer survival) 118 % of control; (endpoint: median survival time, dose: 400.0 mg/kg/injection, schedule: Q02DX009 (ip), vehicle: saline, higher = longer survival) 98 % of control.
